Drawing on PMC13266984 (Journal of medicinal chemistry, 2026), this text covers AC50, Efficacy and CC-v2 for 17 compounds.

This assay addresses T1, Human ALDH3A1 (Homo sapiens, UniProt P30838).
T1 sequence (P30838 1-453): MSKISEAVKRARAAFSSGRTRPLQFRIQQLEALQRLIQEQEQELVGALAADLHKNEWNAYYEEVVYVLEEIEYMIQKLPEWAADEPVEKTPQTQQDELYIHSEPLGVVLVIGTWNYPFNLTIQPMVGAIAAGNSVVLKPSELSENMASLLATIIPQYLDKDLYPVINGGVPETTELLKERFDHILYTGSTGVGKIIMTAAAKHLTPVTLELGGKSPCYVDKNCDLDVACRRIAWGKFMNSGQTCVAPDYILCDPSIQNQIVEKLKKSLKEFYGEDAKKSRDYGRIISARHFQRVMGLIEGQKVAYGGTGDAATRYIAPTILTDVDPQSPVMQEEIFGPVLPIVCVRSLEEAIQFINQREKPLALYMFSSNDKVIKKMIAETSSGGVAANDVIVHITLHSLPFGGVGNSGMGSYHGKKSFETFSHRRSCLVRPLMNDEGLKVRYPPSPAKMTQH
Put plainly: ALDH3A1 biochemical assay (benzaldehyde/NADP+, diaphorase-resazurin readout, 1,536-well). As to conditions: for CC-v2: curve class.

Consider `Cc1nn(-c2ccc(C(C)C)cc2)c(C)c1[C@@H]1C=C[C@@H](NCc2ccc(F)cc2)C1` [NCGC00401594-01], for which half-maximal activity (AC50) was put at 12.6 µM. Under “Table S2, in-house analogs”, this compound returned an Efficacy of -91.30 and a CC-v2 of -2.2.

In the case of `Cc1ccc(-n2nc(C)c([C@@H]3C=C[C@@H](NCc4ccc(N(C)C)cc4)C3)c2C)cc1Cl` [NCGC00395823-01], the AC50 – broadly, the concentration giving half of the maximal activity seen – worked out at 14.1 µM. For the setting “Table S2, in-house analogs”, this compound had an Efficacy of -101.87 and a CC-v2 of -2.1.

`C[S+](=O)([O-])c1ccc(N2CCN(CC3(O)CNCCOC3)CC2)c(F)c1` (stereo not drawn) [NCGC00435271-01] had an AC50 of 20 µM. Moreover, under “Table S1, primary screen”, the Efficacy is reported as -66.49 and the CC-v2 was -3.

In the case of `Cc1cc(Cl)ccc1-n1nc(C)c([C@@H]2C=C[C@@H](NC(=O)c3ccc(N(C)C)cc3)C2)c1C` [NCGC00394621-01], the AC50 was found to be 3.98 µM. In addition, for the setting “Table S2, in-house analogs”, the Efficacy is reported as -97.74 and the CC-v2 is reported as -1.1.

The compound `COc1ccc(-n2nc(C)c([C@@H]3C=C[C@@H](NCc4ccc(N(C)C)cc4)C3)c2C)cc1` [NCGC00394616-01] had an AC50 of 28.2 µM. In addition, for the setting “Table S2, in-house analogs”, the Efficacy is -105.83 and the CC-v2 is given as -2.1.

As to `COc1ccc(CN2C[C@@H](F)[C@@H](OCc3nc4cnccc4[nH]3)C2)cc1` [NCGC00391075-01], the activity was half-maximal at 15.8 µM (AC50). Where the note is “Table S2, in-house analogs”, this compound came in with an Efficacy of -69.78 and a CC-v2 of -2.4.

`C[S+](=O)([O-])c1ccc(CN2C[C@H](O)C[C@H]2c2nc(C3CC3)no2)cc1` [NCGC00396353-01] returned an AC50 of 35.5 µM. Under “Table S1, primary screen”, the Efficacy is given as -44.61 and the CC-v2 is given as -2.2.

`CCn1nc(C)c(CNC(=O)c2cc(COc3ccc4ncccc4c3)on2)c1C` [NCGC00426725-01]: the activity was half-maximal at 28.2 µM (AC50). Further, for the setting “Table S1, primary screen”, the Efficacy is given as -57.51 and the CC-v2 is -2.2.

For `CN1CCOc2c(C(=O)NCCC(N)=O)cc(-c3ccc(CO)cc3)cc21` [NCGC00417044-01], the AC50 stood at 17.8 µM. Under “Table S2, in-house analogs”, this compound had an Efficacy of -40.76 and a CC-v2 of -2.2.

In turn, `O=C(NCc1ccncc1)c1csc(N2CCN(c3ccccc3F)CC2)n1` [NCGC00430720-01] showed a concentration at half-maximal activity (AC50) of 15.8 µM. Besides, under “Table S2, in-house analogs”, the Efficacy was -57.30 and the CC-v2 is -2.2.

Consider `COCCNC(=O)c1ccc2c(c1)N(C)C(CC(=O)NCC(C)C)CO2` (stereo not drawn) [NCGC00429361-01], for which the AC50 stood at 28.2 µM. Where the note is “Table S1, primary screen”, this compound showed an Efficacy of -36.95 and a CC-v2 of -3.

As for `COc1cccc(N2CCN(c3nc(C(=O)NCc4ccncc4)cs3)CC2)c1` [NCGC00430686-01], the AC50 was 12.6 µM. Further, for the setting “Table S2, in-house analogs”, the Efficacy is recorded as -75.42 and the CC-v2 is on record as -2.2.

For `O=C(NCc1nc(-c2ccccc2)no1)C1CCN(c2cc(-n3cncn3)ncn2)CC1` [NCGC00526793-01], half-maximal activity (AC50) was put at 35.5 µM. Where the note is “Table S1, primary screen”, this compound registered an Efficacy of -44.11 and a CC-v2 of -2.2.

Consider `COc1ccc(-n2nc(C)c([C@@H]3C=C[C@@H](NCc4cccc(Cl)c4)C3)c2C)cc1` [NCGC00391691-01], for which the AC50 came to 22.4 µM. For the setting “Table S2, in-house analogs”, the Efficacy is -46.23 and the CC-v2 is on record as -2.2.

`Cc1nn(CCC#N)c(C)c1[C@@H]1C=C[C@@H](NC(=O)Nc2ccc(Cl)cc2)C1` [NCGC00399959-01] returned an AC50 of 28.2 µM. Under “Table S2, in-house analogs”, the Efficacy is listed as -62.15 and the CC-v2 was -2.2.

In the case of `Cc1nn(-c2ccc(C(F)(F)F)cc2)c(C)c1[C@@H]1C=C[C@@H](NCc2ccc(N(C)C)cc2)C1` [NCGC00392637-01], half-maximal activity (AC50) was put at 12.6 µM. For the setting “Table S2, in-house analogs”, the Efficacy was -37.26 and the CC-v2 was -2.2.

`COc1ccc(CCC(=O)N2CCc3[nH]c(=O)c(C#N)cc3C2)c(OC)c1OC` [NCGC00527314-01]: the half-maximal activity concentration (AC50) is 35.5 µM. Under “Table S1, primary screen”, this compound gave an Efficacy of -47.14 and a CC-v2 of -2.4.
